Numbers after ± are expanded uncertainties.
assay: xn = mol fraction of the nth substance listed; conditions: 293.15 K; 100 kPa; Liquid; Capillary tube (Ostwald / Ubbelohde) method; x2 = 0

SMILES | viscosity
CCCO [propan-1-ol] + C=CCn1cc[n+](C)c1.O=S(=O)([N-]S(=O)(=O)C(F)(F)F)C(F)(F)F | 2.14 ± 0.17 mPa·s
CCCO [propan-1-ol] + CC[S+](CC)CC.O=S(=O)([N-]S(=O)(=O)C(F)(F)F)C(F)(F)F | 2.14 ± 0.17 mPa·s
CCCO [propan-1-ol] + O=S(=O)([N-]S(=O)(=O)C(F)(F)F)C(F)(F)F.On1cc[n+](O)c1 | 2.14 ± 0.17 mPa·s

same assay, conditions: 293.15 K; 100 kPa; Liquid; Frequency=3 MHz; Single path-length method; x2 = 0

SMILES | speed of sound
CCCO [propan-1-ol] + C=CCn1cc[n+](C)c1.O=S(=O)([N-]S(=O)(=O)C(F)(F)F)C(F)(F)F | 1223.8 ± 6 m/s
CCCO [propan-1-ol] + CC[S+](CC)CC.O=S(=O)([N-]S(=O)(=O)C(F)(F)F)C(F)(F)F | 1223.8 ± 6 m/s
CCCO [propan-1-ol] + O=S(=O)([N-]S(=O)(=O)C(F)(F)F)C(F)(F)F.On1cc[n+](O)c1 | 1223.8 ± 6 m/s

same assay, conditions: 293.15 K; 100 kPa; Liquid; Vibrating tube method; x2 = 0

SMILES | mass density
CCCO [propan-1-ol] + C=CCn1cc[n+](C)c1.O=S(=O)([N-]S(=O)(=O)C(F)(F)F)C(F)(F)F | 804 ± 2 kg/m3
CCCO [propan-1-ol] + CC[S+](CC)CC.O=S(=O)([N-]S(=O)(=O)C(F)(F)F)C(F)(F)F | 804 ± 2 kg/m3
CCCO [propan-1-ol] + O=S(=O)([N-]S(=O)(=O)C(F)(F)F)C(F)(F)F.On1cc[n+](O)c1 | 804 ± 2 kg/m3

same assay, conditions: 298.15 K; 100 kPa; Liquid; Capillary tube (Ostwald / Ubbelohde) method; x2 = 0

SMILES | viscosity
CCCO [propan-1-ol] + CC[S+](CC)CC.O=S(=O)([N-]S(=O)(=O)C(F)(F)F)C(F)(F)F | 1.897 ± 0.15 mPa·s
CCCO [propan-1-ol] + O=S(=O)([N-]S(=O)(=O)C(F)(F)F)C(F)(F)F.On1cc[n+](O)c1 | 1.897 ± 0.15 mPa·s

same assay, conditions: 298.15 K; 100 kPa; Liquid; Frequency=3 MHz; Single path-length method; x2 = 0

SMILES | speed of sound
CCCO [propan-1-ol] + C=CCn1cc[n+](C)c1.O=S(=O)([N-]S(=O)(=O)C(F)(F)F)C(F)(F)F | 1206.5 ± 6 m/s
CCCO [propan-1-ol] + CC[S+](CC)CC.O=S(=O)([N-]S(=O)(=O)C(F)(F)F)C(F)(F)F | 1206.5 ± 6 m/s
CCCO [propan-1-ol] + O=S(=O)([N-]S(=O)(=O)C(F)(F)F)C(F)(F)F.On1cc[n+](O)c1 | 1206.5 ± 6 m/s

same assay, conditions: 298.15 K; 100 kPa; Liquid; Vibrating tube method; x2 = 0

SMILES | mass density
CCCO [propan-1-ol] + CC[S+](CC)CC.O=S(=O)([N-]S(=O)(=O)C(F)(F)F)C(F)(F)F | 800 ± 2 kg/m3
CCCO [propan-1-ol] + O=S(=O)([N-]S(=O)(=O)C(F)(F)F)C(F)(F)F.On1cc[n+](O)c1 | 800 ± 2 kg/m3

same assay, conditions: 303.15 K; 100 kPa; Liquid; Capillary tube (Ostwald / Ubbelohde) method; x2 = 0

SMILES | viscosity
CCCO [propan-1-ol] + C=CCn1cc[n+](C)c1.O=S(=O)([N-]S(=O)(=O)C(F)(F)F)C(F)(F)F | 1.688 ± 0.14 mPa·s
CCCO [propan-1-ol] + CC[S+](CC)CC.O=S(=O)([N-]S(=O)(=O)C(F)(F)F)C(F)(F)F | 1.688 ± 0.14 mPa·s
CCCO [propan-1-ol] + O=S(=O)([N-]S(=O)(=O)C(F)(F)F)C(F)(F)F.On1cc[n+](O)c1 | 1.688 ± 0.14 mPa·s

same assay, conditions: 303.15 K; 100 kPa; Liquid; Frequency=3 MHz; Single path-length method; x2 = 0

SMILES | speed of sound
CCCO [propan-1-ol] + C=CCn1cc[n+](C)c1.O=S(=O)([N-]S(=O)(=O)C(F)(F)F)C(F)(F)F | 1189.4 ± 6 m/s
CCCO [propan-1-ol] + CC[S+](CC)CC.O=S(=O)([N-]S(=O)(=O)C(F)(F)F)C(F)(F)F | 1189.4 ± 6 m/s
CCCO [propan-1-ol] + O=S(=O)([N-]S(=O)(=O)C(F)(F)F)C(F)(F)F.On1cc[n+](O)c1 | 1189.4 ± 6 m/s

same assay, conditions: 303.15 K; 100 kPa; Liquid; Vibrating tube method; x2 = 0

SMILES | mass density
CCCO [propan-1-ol] + C=CCn1cc[n+](C)c1.O=S(=O)([N-]S(=O)(=O)C(F)(F)F)C(F)(F)F | 796 ± 2 kg/m3
CCCO [propan-1-ol] + CC[S+](CC)CC.O=S(=O)([N-]S(=O)(=O)C(F)(F)F)C(F)(F)F | 796 ± 2 kg/m3
CCCO [propan-1-ol] + O=S(=O)([N-]S(=O)(=O)C(F)(F)F)C(F)(F)F.On1cc[n+](O)c1 | 796 ± 2 kg/m3

same assay, conditions: 308.15 K; 100 kPa; Liquid; Capillary tube (Ostwald / Ubbelohde) method; x2 = 0

SMILES | viscosity
CCCO [propan-1-ol] + C=CCn1cc[n+](C)c1.O=S(=O)([N-]S(=O)(=O)C(F)(F)F)C(F)(F)F | 1.506 ± 0.12 mPa·s
CCCO [propan-1-ol] + CC[S+](CC)CC.O=S(=O)([N-]S(=O)(=O)C(F)(F)F)C(F)(F)F | 1.506 ± 0.12 mPa·s
CCCO [propan-1-ol] + O=S(=O)([N-]S(=O)(=O)C(F)(F)F)C(F)(F)F.On1cc[n+](O)c1 | 1.506 ± 0.12 mPa·s

same assay, conditions: 308.15 K; 100 kPa; Liquid; Frequency=3 MHz; Single path-length method; x2 = 0

SMILES | speed of sound
CCCO [propan-1-ol] + C=CCn1cc[n+](C)c1.O=S(=O)([N-]S(=O)(=O)C(F)(F)F)C(F)(F)F | 1172.4 ± 6 m/s
CCCO [propan-1-ol] + CC[S+](CC)CC.O=S(=O)([N-]S(=O)(=O)C(F)(F)F)C(F)(F)F | 1172.4 ± 6 m/s
CCCO [propan-1-ol] + O=S(=O)([N-]S(=O)(=O)C(F)(F)F)C(F)(F)F.On1cc[n+](O)c1 | 1172.4 ± 6 m/s

same assay, conditions: 308.15 K; 100 kPa; Liquid; Vibrating tube method; x2 = 0

SMILES | mass density
CCCO [propan-1-ol] + C=CCn1cc[n+](C)c1.O=S(=O)([N-]S(=O)(=O)C(F)(F)F)C(F)(F)F | 792 ± 2 kg/m3
CCCO [propan-1-ol] + CC[S+](CC)CC.O=S(=O)([N-]S(=O)(=O)C(F)(F)F)C(F)(F)F | 792 ± 2 kg/m3
CCCO [propan-1-ol] + O=S(=O)([N-]S(=O)(=O)C(F)(F)F)C(F)(F)F.On1cc[n+](O)c1 | 792 ± 2 kg/m3

same assay, conditions: 313.15 K; 100 kPa; Liquid; Capillary tube (Ostwald / Ubbelohde) method; x2 = 0

SMILES | viscosity
CCCO [propan-1-ol] + C=CCn1cc[n+](C)c1.O=S(=O)([N-]S(=O)(=O)C(F)(F)F)C(F)(F)F | 1.348 ± 0.11 mPa·s
